Reference: patent US20230121086A1, “RORgT INHIBITOR, PREPARATION METHOD THEREOF AND USE THEREOF” (SUNSHINE LAKE PHARMA CO., LTD., priority 2020, published 2023)

target: T1, RORγt (Homo sapiens, UniProt P51449); assay: Fluorescence resonance energy transfer (FRET) test, inhibitory activity of RORγt; assay type: biochemical; conditions: not given
T1 construct: […]
T1 sequence (P51449 269-508 limits assumed): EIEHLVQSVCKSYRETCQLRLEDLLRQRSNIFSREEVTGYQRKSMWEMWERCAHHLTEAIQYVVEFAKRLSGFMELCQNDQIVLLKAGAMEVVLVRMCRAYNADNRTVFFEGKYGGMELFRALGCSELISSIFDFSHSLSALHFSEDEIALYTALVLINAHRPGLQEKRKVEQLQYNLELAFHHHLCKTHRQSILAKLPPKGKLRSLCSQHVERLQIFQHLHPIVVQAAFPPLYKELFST

Compound	IC50
[2H]C([2H])(NC(=O)c1ccc(N2C[C@@H](Oc3ccc(OC(F)(F)F)cn3)C[C@H]2COC(F)F)cc1)c1ccc(S(=O)(=O)CC)cc1 [Example 169, N-(Dideuterium(4-(ethylsulfonyl)phenyl)methyl)-4-((2S,4S)-2-((difluoromethoxy)methyl)-4-((5-(trifluoromethoxy)pyridin-2-yl)oxy)pyrrolidin-1-yl) benzamide]	6 nM

same assay, conditions: FRET, B-RORγt LBD / Biotin-SRC1; read-out: IC50

IC50	Compound
11 nM	CCS(=O)(=O)c1ccc([C@H](COC(=O)NC)NC(=O)c2ccc(N3C[C@@H](Oc4ccc(OC(F)(F)F)cn4)C[C@H]3COC(F)F)cc2)cc1 [Example 155, (R)-2-(4-((2S,4S)-2-((difluoromethoxy)methyl)-4-((5-(trifluoromethoxy)pyridin-2-yl)oxy)pyrrolidin-1-yl)benzoylamino)-2-(4-(ethylsulfonyl)phenyl)ethyl methylcarbamate]
3.1 nM	CCS(=O)(=O)c1ccc([C@H](COC(N)=O)NC(=O)c2ccc(N3C[C@@H](Oc4ccc(OC(F)(F)F)cn4)C[C@H]3COC(F)F)cc2)cc1 [Example 156, (R)-2-(4-((2S,4S)-2-((difluoromethoxy)methyl)-4-((5-(trifluoromethoxy)pyridin-2-yl)oxy)pyrrolidin-1-yl)benzoylamino)-2-(4-(ethylsulfonyl)phenyl)ethyl carbamate]
6.9 nM	CCS(=O)(=O)c1ccc([C@H](CC#N)NC(=O)c2ccc(N3C[C@@H](Oc4ccc(-n5nccn5)cc4)C[C@H]3COC(F)F)cc2)cc1 [Example 157, 4-((2S,4S)-4-(4-(2H-1,2,3-triazol-2-yl)phenoxy)-2-((difluoromethoxy)methyl)pyrrolidin-1-yl)-N—((S)-2-cyano-1-(4-(ethylsulfonyl)phenyl)ethyl)benzamide]
7.4 nM	CCS(=O)(=O)c1ccc([C@H](CC#N)NC(=O)c2ccc(N3C[C@@H](Oc4ccc(-n5cccn5)cn4)C[C@H]3COC(F)F)cc2)cc1 [Example 158]
10.2 nM	CCS(=O)(=O)c1ccc([C@H](CC#N)NC(=O)c2ccc(N3C[C@@H](Oc4ccc(-n5cc(C)cn5)cc4)C[C@H]3COC(F)F)cc2)cc1 [Example 159, N—((S)-2-cyano-1-(4-(ethylsulfonyl)phenyl)ethyl)-4-((2S,4S)-2-((difluoromethoxy)methyl)-4-(4-(4-methyl-1H-pyrazol-1-yl)phenoxy)pyrrolidin-1-yl) benzamide]
5.6 nM	CCS(=O)(=O)c1ccc([C@H](CC#N)NC(=O)c2ccc(N3C[C@@H](Oc4ccc(Cl)cn4)C[C@H]3COC(F)F)cc2)cc1 [Example 160, 4-((2S,4S)-4-((5-chloropyridin-2-yl)oxy)-2-((difluoromethoxy)methyl)pyrrolidin-1-yl)-N—((S)-2-cyano-1-(4-(ethylsulfonyl)phenyl)ethyl)benzamide]
9.9 nM	CCS(=O)(=O)c1ccc([C@H](CC#N)NC(=O)c2ccc(N3C[C@@H](Oc4ccc(-n5ccc(F)n5)cc4)C[C@H]3COC(F)F)cc2)cc1 [Example 162, N—((S)-2-cyano-1-(4-(ethylsulfonyl)phenyl)ethyl)-4-((2S,4S)-2-((difluoromethoxy)methyl)-4-(4-(3-fluoro-1H-pyrazol-1-yl)phenoxy)pyrrolidin-1-yl)benzamide]
5.1 nM	CCS(=O)(=O)c1ccc([C@H](CC#N)NC(=O)c2ccc(N3C[C@@H](Oc4ccc(-n5ccc(C)n5)cc4)C[C@H]3COC(F)F)cc2)cc1 [Example 163, N—((S)-2-cyano-1-(4-(ethylsulfonyl)phenyl)ethyl)-4-((2S,4S)-2-((difluoromethoxy)methyl)-4-(4-(3-methyl-1H-pyrazol-1-yl)phenoxy)pyrrolidin-1-yl) benzamide]
3.1 nM	CCS(=O)(=O)c1ccc([C@H](COC(N)=O)NC(=O)c2cnc(N3C[C@@H](Oc4ccc(Cl)cn4)C[C@H]3COC(F)F)c(F)c2)cc1 [Example 164, (R)-2-(6-((2S,4S)-4-((5-chloropyridin-2-yl)oxy)-2-((difluoromethoxy)methyl)pyrrolidin-1-yl)-5-fluoronicotinamido)-2-(4-(ethylsulfonyl)phenyl)ethyl carbamate]
8 nM	CCS(=O)(=O)c1ccc([C@H](COC(N)=O)NC(=O)c2ccc(N3C[C@@H](Oc4ccc(-n5cccn5)cn4)C[C@H]3COC(F)F)nc2)cc1 [Example 168, (R)-2-(6-((2S,4S)-4-((5-(1H-pyrazol-1-yl)pyridine-2-yl)oxy)-2-((difluoromethoxy)methyl)pyrrolidin-1-yl)nicotinylamino)-2-(4-(ethylsulfonyl)phenyl)ethyl carbamate]
9 nM	CCS(=O)(=O)c1ccc([C@H](COC(N)=O)NC(=O)c2ccc(N3C[C@@H](Oc4ccc(-n5nccn5)cn4)C[C@H]3COC(F)F)cc2)cc1 [Example 170, (R)-2-(4-((2S,4S)-4-((5-(2H-1,2,3-triazol-2-yl)pyridine-2-yl)oxy)-2-((difluoromethoxy)methyl)pyrrolidin-1-yl)benzoylamino)-2-(4-(ethylsulfonyl)phenyl)ethyl carbamate]
23.5 nM	CCS(=O)(=O)c1ccc([C@H](CC(=O)O)NC(=O)c2ccc(N3C[C@@H](Oc4ccc(-n5cccn5)cn4)C[C@H]3COC(F)F)cc2)cc1 [Example 172, (S)-3-(4-((2S,4S)-4-((5-(1H-pyrazol-1-yl)pyridine-2-yl)oxy)-2-((difluoromethoxy)methyl)pyrrolidin-1-yl)benzamido)-3-(4-(ethylsulfonyl)phenyl)propionic Acid]
3.8 nM	CCS(=O)(=O)c1ccc([C@H](COC(N)=O)NC(=O)c2ccc(N3C[C@@H](Oc4ccc(-n5nccn5)cn4)C[C@H]3COC(F)F)nc2)cc1 [Example 173, (R)-2-(6-((2S,4S)-4-((5-(2H-1,2,3-triazol-2-yl)pyridine-2-yl)oxy)-2-((difluoromethoxy)methyl)pyrrolidin-1-yl)nicotinylamino)-2-(4-(ethylsulfonyl)phenyl)ethyl carbamate]
39.2 nM	CCS(=O)(=O)c1ccc([C@H](COCC(=O)O)NC(=O)c2ccc(N3C[C@@H](Oc4ccc(-n5cccn5)cn4)C[C@H]3COC(F)F)nc2)cc1 [Example 175, 2-((R)-2-(6-((2S,4S)-4-((5-(1H-pyrazol-1-yl)pyridine-2-yl)oxy)-2-((difluoromethoxy)methyl)pyrrolidin-1-yl)nicotinylamino)-2-(4-(ethylsulfonyl)phenyl)ethoxy)acetic Acid]
7.3 nM	CCS(=O)(=O)c1ccc([C@H](COC(N)=O)NC(=O)c2ccc(N3C[C@@H](Oc4ccc(OC(F)(F)F)cn4)C[C@H]3CF)nc2)cc1 [Example 176, (R)-2-(4-(Ethylsulfonyl)phenyl)-2-(6-((2S,4S)-2-(fluoromethyl)-4-((5-(trifluoromethoxy)pyridin-2-yl)oxy)pyrrolidin-1-yl)nicotinamido)ethyl carbamate]
27.4 nM	CCS(=O)(=O)c1ccc([C@H](COC(N)=O)NC(=O)c2cnc(N3CCCC3c3cccc(F)c3)nc2)cc1 (stereo partly drawn) [Example 177, (2R)-2-(4-(Ethylsulfonyl)phenyl)-2-(2-(2-(3-fluorophenyl)pyrrolidin-1-yl)pyrimidine-5-carboxamido)ethyl carbamate]
46.2 nM	CCS(=O)(=O)c1ccc([C@H](CC(=O)O)NC(=O)c2cnc(N3CCCC3c3cccc(F)c3)nc2)cc1 (stereo partly drawn) [Example 178, (3S)-3-(4-(Ethylsulfonyl)phenyl)-3-(2-(2-(3-fluorophenyl)pyrrolidin-1-yl)pyrimidine-5-carboxamido)propionic Acid]
9.4 nM	CCS(=O)(=O)c1ccc([C@H](COC(N)=O)NC(=O)c2cnc(N3CC(F)(F)CC3c3cccc(F)c3)nc2)cc1 (stereo partly drawn) [Example 179, (2R)-2-(2-(4,4-difluoro-2-(3-fluorophenyl)pyrrolidin-1-yl)pyrimidine-5-carboxamido)-2-(4-(ethylsulfonyl)phenyl)ethyl carbamate]
55.8 nM	NC(=O)OCC(C(=O)Nc1ccc(C(O)(C(F)(F)F)C(F)(F)F)cc1)c1ccc(S(=O)(=O)CC2CC2)cc1 (centres unmarked) [Example 182, 2-(4-((cyclopropylmethyl)sulfonyl)phenyl)-3-((4-(1,1,1,3,3,3-hexafluoro hydroxypropan-2-yl)phenyl)amino)-3-oxopropyl carbamate]
10 nM	CCS(=O)(=O)c1ccc([C@H](COC(N)=O)NC(=O)c2ccc(N3C[C@@H](Oc4ccc(Cl)cn4)C[C@H]3COC(F)F)nc2)cc1 [Example 183, (R)-2-(6-((2S,4S)-4-((5-chloropyridin-2-yl)oxy)-2-((difluoromethoxy)methyl)pyrrolidin-1-yl)nicotinamido)-2-(4-(ethylsulfonyl)phenyl)ethyl carbamate]

Compound	IC50
N—((S)-2-cyano-1-(4-(ethylsulfonyl)phenyl)ethyl)-4-((2S,4S)-2-((difluoromethoxy)methyl)-4-(4-(4-fluoro-1H-pyrazol-1-yl)phenoxy)pyrrolidin-1-yl) benzamide [Example 161]	10.4 nM
N—((S)-2-cyano-1-(4-(ethylsulfonyl)phenyl)ethyl)-4-((2S,5R)-5-(2,2-difluorobenzo[1,3]dioxol yl)-2-((difluoromethoxy)methyl)piperidin-1-yl)benzamide [Example 112-2]	13 nM
